# US20090155784A1, “ASSESSMENT OF ASTHMA AND ALLERGEN-DEPENDENT GENE EXPRESSION” (Wyeth, priority 2007, published 2009)
# System: human whole blood
# Experiment: human whole blood assay verifying inhibitory activity of the inhibitor samples
# Assay type: cell-based
smiles,measurement,value
CC(c1cc2ccccc2s1)N(O)C(N)=O (stereo not shown) [Zileuton],inhibitory activity in a human whole blood assay,verified
